In this test the test system is CD1d gene transcription. In words: CD1d mRNA by Real Time PCR in primary human keratinocytes under H2O2 chemical stress. In kind it is cell-based. Conditions: primary human keratinocytes exposed to 300 μM H2O2, KGM with vs without hydrocortisone, RNA at different times after treatment, FIG. 11. How it is done:
Primary human keratinocytes were grown in complete KGM before being exposed to 300 μM H2O2 as a stress factor. 48 hours after seeding, KGM medium was replaced by KGM without hydrocortisone and cultures were treated with 300 μM of H2O2. Total RNA was extracted at different time after treatment and CD1d mRNA quantified by Real Time PCR.
For Taq Man Assays, Applied Biosystems recommends to use 10 to 100 ng of initial RNA quantity per well. Consequently, first strand cDNA synthesis was performed in a 20 μl volume using 1 μg of total RNA and […] of random hexamers following the manufacturer's recommendations (Superscript™ First-Strand Synthesis System for RT-PCR, 11904-018, Invitrogen). 1 μl of the resulting cDNA samples was used for amplification by Real Time PCR. […]
All the cDNA samples were tested in triplicate. […] The plate was sealed, centrifuged at 2000 rpm for 30 seconds and placed in a 5700 Sequence Detection System for thermal cycling and fluorescence analysis using the following PCR program: […]
Results were analyzed using the GeneAmp® 5700 SDS software. […]
The gene expression fold changes obtained in the test condition compared to the control condition were determined by the comparative Ct method using the following formula: [formula] […]

Molecules are shown by their SMILES.

On to `C[C@]12CCC(=O)C=C1CC[C@@H]1[C@@H]2[C@@H](O)C[C@@]2(C)[C@H]1CC[C@]2(O)C(=O)CO` [Hydrocortisone], for which the “CD1d gene transcription (CD1d mRNA, fold change by comparative Ct method)” value is reported as “able to down-regulate CD1d expression”. Besides, the “CD1d gene transcription (CD1d mRNA, fold change by comparative Ct method)” value (listed as hydrocortisone) is recorded as “suppresses CD1d transcription”.

These data come from patent publication US20060104901A1, “Preventing or treating epithelial tissue damage or hair loss” (priority 2002, published 2006).
